These are literature values, as cited in patent US8389572B2, “Therapeutic delivery of carbon monoxide” (hemoCORM Limited, priority 2006, dated 2013).

For this data set the following is noted: disclosed in WO 02/092075 and WO 2004/045598.

Consider `F[P-](F)(F)(F)(F)F.O=[C]=[Fe](=[C]=O)(=[C]=O)[CH]1C=CC=C1` [[CpFe(CO)3]PF6], for which the “precipitate during release of CO” value is given as “produced a precipitate during release of CO”. In addition, under “solvent”, the solubility result is “soluble in dimethylsulphoxide (DMSO)”.
